Columns and labels:
[1] = test system: HT1080 cells (endogenous IDH1 R132C); experiment: 2HG fluorimetric assay / high-throughput screen, secreted 2HG in media; format: cell-based, human
Method: 2HG fluorimetric assay. N-terminal 6×-His tagged PHGDH was expressed and purified from chemically competent BL-21 E. coli using Ni-NTA agarose (Qiagen) (Grant et al., 1999). Purified protein was then dialyzed in 40 mM KPO4 buffer at 4° C. overnight. Conditioned culture media (DMEM or aMEM) containing 2HG was neutralized with 60 mM HCL for 10 minutes followed by 60 mM Tris base. A 20 μL aliquot of neutralized conditioned media was then mixed with 90 μL of optimized assay reaction mix consisting of 5 μg purified PHGDH enzyme, 12.5 μM resazurin (Sigma-Aldrich), 0.125 U/ml diaphorase (Sigma-Aldrich), 1 mM NAD (Sigma-Aldrich), 40 mM Tris-HCl pH 8.8, and incubated for 90 minutes in a 96-well plate. Resorufin fluorescence was then quantified using a FLUOstar™ OPTIMA fluorescence plate reader (BMG Labtech) with excitation and emission peaks of 544 nm and 590 nm, respectively. Measurements were background subtracted (neutralized fresh media) and normalized either to total protein or viability as measured by Alamar Blue (Naik et al., 2009).
High-throughput screening. Screening was carried out using the Beckman Coulter (Fullerton, Calif.) Core Robotics system, including an FX liquid handler, controlled by the Sagian graphical method development tool (SAMI scheduling software). The Institute of Chemistry and Cell Biology (ICCB) Known Bioactives Library (Enzo Lifescience, BML-2840-0100) was diluted 1:200 in αMEM and 50 μL were added to pre-plated HT1080 cells. After 48 hours of incubation, media was removed and 2HG in the media was measured using the fluorimetric assay. Fresh 2HG fluorimetric assay reaction mix was prepared immediately before assaying each screen plate to limit background modulation. Cell viability was determined using Alamar Blue, as described previously (Naik et al., 2009).
To identify screen hits and account for differences in compound toxicity, 2HG fluorescence was first median-centered around DMSO treatment controls within each screen plate. 2HG fluorescence was then plotted against viability such that a correlation between the two measurements could be visualized. A linear fit and 95% predictive interval (P.I.) were then determined and plotted using GraphPad Prism (GraphPad Software).

[2] = test system: NHA cells expressing IDH1 R132H or wild type IDH1; experiment: Histone lysine methylation by Western blot in immortalized NHA cells; format: cell-based, human
Method: Histone extraction and Western blot analysis. For extraction of total cellular protein, cells were lysed in RIPA buffer (150 mM NaCl, 50 mM Tris, 5 mM EDTA, 1% NP-40, 0.1% SDS, 0.5% sodium deoxycholate, pH 7.4), supplemented with protease inhibitor cocktail (Roche), sodium orthovanadate (1 mM), and PMSF (1 mM). Whole-cell lysates were normalized for protein content by BCA assay (Pierce). Histone extraction was performed using an EpiQuik™ Total Histone Extraction Kit (Epigentek) and extracted protein was quantified using a Bradford assay.
Proteins were resolved by SDS-PAGE, transferred to a PVDF membrane and probed with the following antibodies: IDH1 (Origene, TA500610), 6× His (Abcam, ab1187), H3K9Me2 (Cell Signaling, 4658p), H3K9Me3 (Abcam, ab8898), H3K27Me3 (Millipore, 07-449), H3K79Me2 (Cell Signaling, 9757p), total H3 (Cell Signaling, 4499p), and Actin. Secondary anti-mouse and anti-rabbit horseradish peroxidase-conjugated IgG antibodies were used for detection.

[3] = molecular target: T1, purified, full length, human GLS1 (Homo sapiens, UniProt O94925); experiment: Glutaminase assay (two-step, purified enzyme); format: biochemical
T1 construct: 6xHis (N); made in house; host or cells: E. coli BL-21
T1 sequence (O94925 55-669): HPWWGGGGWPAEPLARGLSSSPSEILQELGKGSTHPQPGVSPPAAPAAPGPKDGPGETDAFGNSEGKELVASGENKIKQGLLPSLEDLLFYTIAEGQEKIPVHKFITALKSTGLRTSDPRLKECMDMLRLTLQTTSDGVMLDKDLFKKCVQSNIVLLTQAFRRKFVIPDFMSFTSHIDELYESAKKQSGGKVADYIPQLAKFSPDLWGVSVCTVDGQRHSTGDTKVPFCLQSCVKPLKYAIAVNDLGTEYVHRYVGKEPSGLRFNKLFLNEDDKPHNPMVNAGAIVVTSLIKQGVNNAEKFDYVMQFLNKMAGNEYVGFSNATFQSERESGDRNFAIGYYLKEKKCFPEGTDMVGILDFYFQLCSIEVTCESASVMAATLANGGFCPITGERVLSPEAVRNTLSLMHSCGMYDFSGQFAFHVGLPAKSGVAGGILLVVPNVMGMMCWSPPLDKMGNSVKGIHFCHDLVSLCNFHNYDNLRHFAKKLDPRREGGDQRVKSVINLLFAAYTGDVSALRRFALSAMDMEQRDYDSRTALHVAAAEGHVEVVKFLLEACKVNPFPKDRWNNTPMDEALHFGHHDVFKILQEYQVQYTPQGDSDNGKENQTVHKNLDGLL
Method: Glutaminase assay. N-terminal 6×-His tagged GLS1 was expressed and purified from chemically competent BL-21 E. coli using Ni-NTA agarose beads (Qiagen). Purified protein was then dialyzed in a 50 mM Tris-phosphate buffer containing 1 mM dithiothreitol at 4° C. overnight. A previously described two-step assay was used to measure glutaminase activity (Kenny et al., 2003). […] […] […] For the second step of the assay, 20 μL of completed and quenched initial reaction were transferred to a new plate and 200 μL of secondary reaction mix containing 0.4 mg bovine liver glutamate dehydrogenase (Sigma-Aldrich), 0.09 M Tris-acetate (pH 9.4), 0.2 M hydrazine, 0.25 mM ADP, and 2 mM NAD was added. Samples were incubated for 40 minutes at room temperature and absorbance of NADH (340 nm) was measured using a microplate spectrophotometer.

[4] = test system: PDAC cells Panc1 and MiaPaca2; experiment: ROS quantification (DCFDA); format: cell-based; conditions: 48 hours
Method: ROS quantification. Reactive oxygen species levels in PDAC cells were quantified using 2,7-dichlorofluorescein diacetate (DCFDA). Following 48 hours of drug treatment in a 96-well plate, cells were washed with PBS, stained for 30 minutes at 37° C. with 20 μM DCFDA, and imaged using an InCell Analyzer 1000. A 10× objective was used to collect 16 fluorescent and bright field images per well with a 10% overlap to allow image stitching. Stained cells were then quantified using the GE InCell Investigator software package with Developer Toolbox.

CCCOc1ccccc1-c1nc2nn[nH]c2c(=O)[nH]1 [Zaprinast, 5-(2-propoxyphenyl)-1H-[1,2,3]triazolo[4,5-d]pyrimidin-7(4H)-one]
Viability in high-throughput screen (Alamar Blue) ([1]; HT1080, 48 hours): little effect on viability | 2HG in high-throughput screen ([1]; HT1080, 48 hours, screen hits top left quadrant): reduced 2HG | Secreted (extracellular) 2HG ([1]; HT1080 cells, 48 hours, fluorescent assay, normalized to viability): concentration-dependent reduction | Concentration required to observe a significant reduction in 2HG ([1]; in cells): 100 to 300 µM | Methylation levels of H3K9Me2 or H3K9Me3 ([2]; IDH1 WT expressing astrocytes, 300 μM): did not produced such a marked reduction | Histone methylation marks (H3K9Me2, H3K9Me3, H3K27Me3, H3K79Me2) ([2]; astrocytes expressing R132H IDH1): marked reduction toward baseline methylation levels | Mode of GLS1 inhibition ([3]; Lineweaver-Burk, with respect to glutamine): noncompetitive inhibitor | IC50 ([3]; purified human GLS1, read-out: IC50, enzymatic activity of GLS1): ~200 µM | Ki ([3]; read-out: Ki, GLS1 kinetic analysis): 220 µM | Reactive oxygen species (DCFDA-positive cells) [4]: increase in reactive oxygen species (ROS) in a concentration-dependent manner
